Read-outs that look alike come from different tables or passages of the source.
Tests used:
[1] = molecular target: T1, human SR-A on CHO-SRA cells (Homo sapiens, UniProt P21757); assay: Cell competition assay with 125I-imaging agent 2, CHO-SRA cells; settings: competition for binding of 125I imaging agent 2, CHO-SRA cells, n=3; read-out: Mean IC50 (one site competition)
T1 construct: expressed in transfected cells; host or cells: CHO (hamster ovary) cells, line CHO-SRA
T1 sequence (P21757 1-451): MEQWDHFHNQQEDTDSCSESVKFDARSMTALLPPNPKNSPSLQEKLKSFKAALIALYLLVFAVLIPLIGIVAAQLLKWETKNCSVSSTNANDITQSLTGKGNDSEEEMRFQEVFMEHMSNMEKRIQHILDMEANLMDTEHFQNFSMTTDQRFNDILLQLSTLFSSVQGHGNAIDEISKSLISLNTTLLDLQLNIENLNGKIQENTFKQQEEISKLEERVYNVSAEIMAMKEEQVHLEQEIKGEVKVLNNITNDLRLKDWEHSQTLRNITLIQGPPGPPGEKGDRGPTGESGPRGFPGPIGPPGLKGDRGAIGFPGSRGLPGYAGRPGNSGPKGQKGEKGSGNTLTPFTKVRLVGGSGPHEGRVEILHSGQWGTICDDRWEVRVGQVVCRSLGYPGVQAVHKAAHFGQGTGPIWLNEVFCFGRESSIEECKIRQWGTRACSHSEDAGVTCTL
Description: (§1) Experiments were carried out in THP-1 and CHO-SRA cells to assess competition for binding of ^125I imaging agent 2 by acLDL, oxLDL and non-radioactive imaging agent 2.
CHO-SRA cells are adherent hamster ovary cells expressing human SR-A and were cultured in Hams F-12 medium containing penicillin/streptomycin, 2 mM glutamine, HEPES buffer (7 ml per 500 ml media), 3% filter-sterilised lipoprotein-deficient serum (LPDS; Sigma cat. no. S5394), 40 μM compactin/mevastatin (Sigma cat. no. M2537), 250 μM mevalonic acid lactone (Sigma cat. no. M4667), and 3 μg/ml acetylated LDL (AcLDL; Biogenesis, Cat no. 5685-3404). For assays with ^125I-acLDL, cells were seeded at 1×10^5 cells/well/ml in 24 well plates 24 hours prior to assay. For assays with ^125I imaging agent 2, CHO-SRA cells were seeded at 1.5×10^5 cells/well/ml in 24 well plates 24 hours prior to assay.

[2] = molecular target: T2, MSRA on THP-1 cells (Homo sapiens, UniProt P21757); assay: Cell competition assay with 125I-imaging agent 2, THP-1 cells; settings: competition for binding of 125I imaging agent 2, THP-1 cells, n=3
T2 construct: Cells became adherent and expressed MSRA; endogenous in cells; host or cells: THP-1 (ECACC), differentiated with PMA
T2 sequence (P21757 1-451): T1 sequence (P21757 1-451)
Description: Experiments were carried out on THP-1 cells. THP-1 cells (human monocyte ECACC) are suspension cells and were cultured in RPMI-1640 medium (Sigma, Cat no. R0883) containing penicillin/streptomycin (Sigma, Cat no. P4458), 2 mM glutamine (Sigma, Cat no. G7513) and 10% foetal bovine serum (FBS; Sigma, Cat no. F-7524). Cells were routinely passaged at 2×10^5 cells/ml in 162 cm^2 flasks. For assays with ^125I-acLDL, cells were seeded at 1×10^5 cells/well/ml in 24 well plates 4-6 days prior to assay and 400 ng/ml phorbol myristate acetate (PMA) added to differentiate THP-1 cells. Cells became adherent and expressed MSRA. For assays with ^125I imaging agent 2, THP-1 cells were seeded at 1.5×10^5 cells/well/ml in 24 well plates 4-6 days prior to assay with 400 ng/ml PMA.
as §1
THP-1 cells were cultured as described in Example 13 above.

- IC50 [1]: 30 ± 12 µM
- IC50 ([2]; read-out: Mean IC50 (two site kinetics, first value)): 0.079 ± 0.02 µM
- IC50 ([2]; read-out: Mean IC50 (two site kinetics, second value)): 14.5 ± 5.8 µM
SMILES: O=C(Nc1ccc(I)cc1)c1cc(Br)ccc1NS(=O)(=O)c1ccc(Cl)cc1 [non-radioactive imaging agent 2]

Source: patent publication US20060239915A1, “Labeled macrophage scavenger receptor antagonists for imaging cardiovascular diseases” (priority 2002, published 2006)
